Test results: patent US10632100B2, “Application of obacunone in preparation of drug for preventing and treating lung damage and pulmonary fibrosis” (GUANGDONG PROVINCIAL HOSPITAL OF TRADITIONAL CHINESE …, priority 2016, dated 2020)

Assays:
[1] = test system: human colon cancer cells (SW480); conditions: cited from earlier work
[2] = test system: bleomycin-induced lung injury and pulmonary fibrosis; experiment: Inhibition of bleomycin-induced lung injury and pulmonary fibrosis in vivo (HE and Masson staining of lung tissue); set-up: species or system C57BL/6 mice; conditions: 10 mg/kg obacunone intraperitoneally 48 hours before each bleomycin injection, lung tissue 7 days after last bleomycin, vs bleomycin group
Protocol: (§1) Eighteen C57BL/6 mice, aged 8 weeks, each weighing 18 to 22 g, were provided by the Laboratory Animal Center of Guangzhou University of Chinese Medicine (Certificate No. 44007200023897).
Bleomycin was intraperitoneally injected into 8-week old B6 mice at a dose of 2 mg/mouse, once per week, three times in total. 48 hours before each injection with bleomycin, corn oil or 10 mg/kg obacunone was intraperitoneally injected into B6 mice in advance. 7 days after the last injection with bleomycin, lung tissue was isolated, fixed, sectioned, HE-stained (see Experiment 8 for details), and Masson-stained.

liver and kidney of mice = experiment: Damage caused by obacunone to liver and kidney of mice (HE staining); type: in vivo, C57BL/6 mice; conditions: 10 mg/kg obacunone, twice a week, 6 times in total; tissues 7 days after last injection; FIG. 4
Protocol: as §1
8-week aged B6 mice were injected with corn oil or 10 mg/kg obacunone, twice a week, 6 times in total. 7 days after the last injection, liver and kidney tissues were isolated, fixed, sectioned, and HE-stained (FIG. 4), as described below.
HE (Hematoxylin-eosin) staining: the paraffin wax samples were continuously sectioned with the semi-automated rotary microtome, with a thickness of 3.5 μm; for staining, the sections were baked and dried for 20 min, rinsed with xylene (2 times×10 min), with anhydrous ethanol (2 times×2 min), with 95% ethanol for 1 min, with 80% ethanol for 1 min, with 70% ethanol for 1 min, washed with water for 1 min, then stained with hematoxylin for 8 min, […], washed with water (2 times×1 min), with 0.5% HCl-ethanol for 10 sec, washed with water for 10 min, stained with eosin for 2 min, washed with water for 1 min, with 80% ethanol for 5 sec, with 85% ethanol for 5 sec, with 90% ethanol for 5 sec, with 95% ethanol for 1 min, with anhydrous ethanol (2 times×2 min), with anhydrous ethanol for 3 min, and with xylene (2 times×2 min), and then the staining was completed and the sections were directly mounted with neutral gum.

[3] = test system: α-smooth muscle actin (α-SMA); experiment: α-SMA expression in bleomycin-induced pulmonary fibrosis (immunohistochemistry staining); type: in vivo, C57BL/6 mice; conditions: after administration of obacunone, compared to the bleomycin group, FIG. 3
From the text: as §1
In pulmonary fibrosis TGF-β induced lung interstitial fibroblasts to transform into myofibroblasts, of which the marker is the expression of α-smooth muscle actin (α-SMA). Therefore, in this experiment the effect of obacunone on the expression of α-SMA in lung myofibroblasts was investigated to provide experimental support for the use of obacunone in treatment and prevention of pulmonary fibrosis.
Steps of immunohistochemistry staining are as follows:
1) placing and baking paraffin wax sections in an electrothermal thermostat oven at 60° C. for 30 min;
2) dewaxing the sections with xylene (8 min for each of I and II), hydrating them with decreasing concentrations of ethanol (8 min for each concentration), and washing with water;
3) performing antigen retrieval, and washing the sections with PBS (3 times×3 min);
4) adding Solution A (S-P kit) dropwise, blocking at room temperature for 10 min, and washing the sections with PBS (3 times×3 min);
5) adding Solution B (S-P kit) dropwise, blocking at room temperature for 10 min, and blotting extra liquid;
6) adding a primary antibody dropwise, placing the sections in a wet box overnight at 4° C., and washing the sections with PBS (3 times×3 min); […]

[4] = test system: cytokines IL-6, TGF-β, IL-17, IFN-γ and MCP-1; experiment: Bleomycin-induced expression of inflammatory factors in lung tissue (qPCR); type: in vivo, C57BL/6 mice; conditions: BLM+obacunone injection group vs BLM injection group, FIG. 2
Protocol: as §1
The mRNA levels of cytokines IL-6, TGF-β, IL-17, IFN-γ and MCP-1 were analyzed by qPCR. *P<0.05, **P<0.01 indicated significant differences between the BLM injection group and the normal group; ^# P<0.05, ^## P<0.01 indicated significant differences between the BLM injection group and the BLM+obacunone injection group.

arginase = conditions: reciprocally increasing NO production; cited from earlier work
[5] = test system: human pancreatic cancer cells (Panc-28); conditions: by activating p53; cited from earlier work

Q: With `CC1(C)OC(=O)C=C[C@]2(C)[C@H]3CC[C@@]4(C)[C@H](c5ccoc5)OC(=O)[C@H]5O[C@]54[C@]3(C)C(=O)C[C@@H]12` [Obacunone] as the molecule, how does the “apoptosis of SW480 cells” value ([1]; by activating cytochrome C) read?
A: induced cell apoptosis

Q: And the “growth of tumor cells (SW480)” value ([1]; by activating p21 to arrest the cell cycle at phases G2/M and G1)?
A: suppressed growth of tumor cells

Q: What about the “HE staining of lung tissue: pathological changes (alveolar shrinkage, inflammatory cell infiltration, wall thickening, bullae, interstitial proliferation)” value ([2]; FIG. 1A) of the same molecule?
A: significant improvement of the above pathological changes

Q: What about the “Masson staining of lung tissue: precipitation of stroma (collagen, fibronectin)” value ([2]; FIG. 1B) of the same molecule?
A: significant improvement of the above pathological changes

Q: And the “effect on liver and kidney (HE-stained sections)” value (liver and kidney of mice)?
A: did not apparently affect the liver and kidney of mice

Q: What about the “expression of α-SMA in lung tissue” value [3] of the same molecule?
A: significantly reduced

Q: And the “mRNA levels of cytokines IL-6, TGF-β, IL-17, IFN-γ and MCP-1 in lung tissue” value [4]?
A: repaired these bleomycin-induced changes to a great extent

Q: What about the activity of arginase (arginase) of the same molecule?
A: inhibiting activity of arginase

Q: What about the “apoptosis of Panc-28 tumor cells” value [5] of the same molecule?
A: induced apoptosis of tumor cells
